# What was measured:
# [1] = system: non-union tibial fracture; assay: Union Area from clinical CT of a patient with non-union tibial fracture; format: in vivo, human; conditions: one patient, after 4 months of teriparatide treatment
# Description: We used our custom MATLAB software to contour the segment of bone on one side of the fracture site similarly to contouring around the murine graft. The surface area forming union to the other side of the fracture was then estimated by the software. […] FIG. 12 illustrates clinical x-rays of an anonymous patient's fractured tibia before and after 4 months of teriparatide therapy, 160 and 165, respectively and CT scan data of the patient before and after 4 months of teriparatide therapy, 170 and 175, respectively; and Union Area, shown in grey in 170 and 175, of the patient before and after 4 months of teriparatide therapy, 180 and 185, respectively. The effects of teriparatide on fracture healing were quantified as a 2.8 fold increase in Union Area.
# [2] = system: contralateral intact femurs; assay: Torsion testing of contralateral intact femurs (Example 4); format: in vivo, mice
# Procedure: Four-mm long bone allografts were harvested from donor mice, and were processed and implanted into intecalary defects 195 in the femur of other mice and secured in place using a stainless steel intramedullary pin 190, as shown in FIG. 13. One week after surgery, daily injections of 40 μg/kg hrPTH (1-34) (Lilly, Inc., Indianapolis, Ind.) were initiated in half of the mice, while the others received injections of saline control. Weekly x-rays were taken to monitor progression (Faxitron X-Ray LLC, Wheeling, Ill.).
# One cohort of the study groups used 14 mice from each treatment (PTH and control) for imaging and mechanical material testing and were sacrificed 6 weeks after surgery. Each femur was harvested by disarticulating the hip and knee and removing the intramedullary stainless-steel pin. Specimens were moistened with saline and frozen at −20° C. until thawed for micro-CT imaging and torsion testing. Specimens were scanned at […] isotropic resolution using the Scanco VivaCT 40 (Scanco Medical AG, Bassersdorf, Switzerland). From these 3D images, the graft and callus bone volumes (BVGraft, BVCallus) were measured by manual segmentation, followed by standardized thresholding at a grayscale corresponding to 750 mgHA/cm^3. The cross-sectional polar moment of inertias (PMI) were computed for each slice throughout the grafted region and the maximum, minimum and average PMI (PMIMax, PMIMin, PMIAve) were investigated to determine their contribution to the biomechanics of the grafted femurs.
# The Union Ratio was also calculated. The Union Ratio measures the graft surface area upon which mineralized callus has formed. If the voxels adjacent to the graft surface are boney callus, the area of that region of the graft is measured and normalized to the total graft surface area. Imaging data (not shown) indicated the bare surface of the graft in blue, with regions of union to the callus depicted as red. Each half (proximal and distal) of the graft was evaluated separately and the lesser ratio of union area to total graft surface area was given as the Union Ratio for that specimen. Callus formation that bridged from host-to-host over the graft was determined by evaluating serial axial cross sections from micro-CT images and given a binary result. These samples were then mechanically tested in torsion. Yield torque (TYield), ultimate torque (TUlt), torsional rigidity (TR), toughness (or work to failure) and the twist at ultimate torque were determined for each specimen. Finally, the mode of failure for each specimen was determined using an x-ray image analysis (not shown).
# [3] = system: critical 4 mm femoral defects; assay: PLA and PLA/βTCP scaffold reconstruction of critical 4 mm femoral defects, micro-CT and torsion (Example 2); format: in vivo, mouse
# Description: (scale bars 25 in B & C represent 200 microns. Arrow head in panel C points to βTCP particles). Titanium pins 30 were passed through the lumen of the scaffolds 15 (panel D) to be used for fixation of the scaffolds when implanted as standalone femoral graft substitutes in critical 4 mm femoral defects in our previously established mouse model (see Example 1). The grafted animals were either treated with daily (5 days/week) injections of PTH or left untreated (Controls). […] When grafts were harvested at 9 weeks and following micro-CT imaging, scaffold-grafted femurs were tested in torsion at a rate of 1°/sec. […] The scaffold-grafted femurs were tested in torsion to determine their biomechanical properties, including maximum torque (panels A&B), torsional rigidity (panels C&D), and ultimate normalized rotation or twist (panels E&F). Panels A, C, and E show the average properties for both scaffold types in control and PTH treated animals. Panels B, D, and F show the maximum torque, torsional rigidity, and ultimate twist, respectively, of specimens that developed a bridging union compared to non-union control and PTH-treated specimens. Data are presented as mean+SEM. Asterisk indicates significant differences from control (p<0.05).
structure (smiles),measurement,setting,value
"CC[C@H](C)[C@H](NC(=O)[C@H](CCC(=O)O)NC(=O)[C@H](CO)NC(=O)[C@@H](NC(=O)[C@@H](N)CO)C(C)C)C(=O)N[C@@H](CCC(N)=O)C(=O)N[C@@H](CC(C)C)C(=O)N[C@@H](CCSC)C(=O)N[C@@H](Cc1cnc[nH]1)C(=O)N[C@@H](CC(N)=O)C(=O)N[C@@H](CC(C)C)C(=O)NCC(=O)N[C@@H](CCCCN)C(=O)N[C@@H](Cc1cnc[nH]1)C(=O)N[C@@H](CC(C)C)C(=O)N[C@@H](CC(N)=O)C(=O)N[C@@H](CO)C(=O)N[C@@H](CCSC)C(=O)N[C@@H](CCC(=O)O)C(=O)N[C@@H](CCCN=C(N)N)C(=O)N[C@H](C(=O)N[C@@H](CCC(=O)O)C(=O)N[C@@H](Cc1c[nH]c2ccccc12)C(=O)N[C@@H](CC(C)C)C(=O)N[C@@H](CCCN=C(N)N)C(=O)N[C@@H](CCCCN)C(=O)N[C@@H](CCCCN)C(=O)N[C@@H](CC(C)C)C(=O)N[C@@H](CCC(N)=O)C(=O)N[C@@H](CC(=O)O)C(=O)N[C@H](C(=O)N[C@@H](Cc1cnc[nH]1)C(=O)N[C@@H](CC(N)=O)C(=O)N[C@@H](Cc1ccccc1)C(=O)O)C(C)C)C(C)C [PTH, PTH (1-34)]",increase in mineralized Union Area,[1],2.8 fold
same,torsional mechanics of intact contralateral femurs,[2]; 6 weeks of PTH treatment,did not show a significant increase in torsional mechanics
same,TR,"[2]; PTH Contra, 6 weeks, mean",1284 N*mm^2/Rad
same,Tult,"[2]; PTH Contra, 6 weeks, mean",22.6 N*mm
same,Twist at Tult,"[2]; PTH Contra, 6 weeks, mean",0.029 Rad/mm
same,Tyield,"[2]; PTH Contra, 6 weeks, mean",15.1 N*mm
same,Work to TUlt,"[2]; PTH Contra, 6 weeks, mean",0.401 Nmm*Rad/mm
same,Work to TYield,"[2]; PTH Contra, 6 weeks, mean",0.151 Nmm*Rad/mm
same,animals that developed a mineralized callus bridging the defect (union),"[3]; 9 weeks post-reconstruction, both scaffolds, daily (5 days/week) PTH, none in controls",30%
same,torsion behavior of bridged grafts,"[3]; 9 weeks, torsion at 1°/sec",prototypical brittle bone torsion behavior
same,"biomechanical properties of scaffold-grafted femurs (maximum torque, torsional rigidity, ultimate twist)","[3]; 9 weeks, vs control",improved the biomechanical properties of the scaffold-grafted femurs especially in femurs with bridging unions
same,volume of the mineralized callus,"[3]; PLA and PLA/βTCP scaffolds, 6 and 9 weeks post-reconstruction, vs control",increased the volume of the mineralized callus regardless of the scaffold type

# — US20090227503A1, “PARATHYROID HORMONE TREATMENT FOR ENHANCED ALLOGRAFT AND TISSUE-ENGINEERED RECONSTRUCTION OF BONE DEFECTS” (UNIVERSITY OF ROCHESTER, priority 2008, published 2009)
